In ChEMBL document CHEMBL1201862, “PubChem BioAssay data set” (2004):
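Following 48 hours of exposure in 96-well plates, responses at five concentrations were used to interpolate endpoints linearly. At the GI50, growth is halved.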 Active and inactive are the calls of the source. No stated cut-off is given here; in the data, active = GI50 up to about 1.1 µM and inactive = higher.

Assays:
Assay in all cases: inhibition of tumour cell growth, NCI panel, 48 h
A549 = test system: A549
BT-549 = test system: BT-549
CAKI-1 = test system: CAKI-1
COLO 205 = test system: COLO 205
Hs-578T = test system: Hs-578T
LOX IMVI = test system: LOX IMVI
NCI-H23 = test system: NCI-H23
NCI-H460 = test system: NCI-H460
NCI-H522 = test system: NCI-H522
OVCAR-3 = test system: OVCAR-3
OVCAR-4 = test system: OVCAR-4
RPMI-8226 = test system: RPMI-8226
SF-295 = test system: SF-295
SK-MEL-5 = test system: SK-MEL-5
SK-OV-3 = test system: SK-OV-3
SNB-19 = test system: SNB-19
SNB-75 = test system: SNB-75
TK-10 = test system: TK-10
UACC-62 = test system: UACC-62

Compound	GI50 (A549)	GI50 (BT-549)	GI50 (CAKI-1)	GI50 (COLO 205)	GI50 (Hs-578T)	GI50 (LOX IMVI)	GI50 (NCI-H23)	GI50 (NCI-H460)	GI50 (NCI-H522)	GI50 (OVCAR-3)	GI50 (OVCAR-4)	GI50 (RPMI-8226)	GI50 (SF-295)	GI50 (SK-MEL-5)	GI50 (SK-OV-3)	GI50 (SNB-19)	GI50 (SNB-75)	GI50 (TK-10)	GI50 (UACC-62)
CC(C)Cn1cnc2c(SCc3ccc(Cl)cc3Cl)nc(N)nc21	25.1 µM (inactive)	29.2 µM (inactive)	49 µM (inactive)	11.5 µM (inactive)	44.8 µM (inactive)	18.7 µM (inactive)	26.1 µM (inactive)	12 µM (inactive)	14.6 µM (inactive)	48.5 µM (inactive)	59.2 µM (inactive)	10.1 µM (inactive)	23.3 µM (inactive)	10 µM (inactive)	> 100 µM (inactive)	44.3 µM (inactive)	42.8 µM (inactive)	23.1 µM (inactive)	19.8 µM (inactive)
Cc1nnc2ccccc2c1O	> 100 µM (inactive)	> 100 µM (inactive)	> 100 µM (inactive)	> 100 µM (inactive)	> 100 µM (inactive)	> 100 µM (inactive)	> 100 µM (inactive)	> 100 µM (inactive)	> 100 µM (inactive)	> 100 µM (inactive)	> 100 µM (inactive)	> 100 µM (inactive)	> 100 µM (inactive)	> 100 µM (inactive)	> 100 µM (inactive)	> 100 µM (inactive)	> 100 µM (inactive)	> 100 µM (inactive)	> 100 µM (inactive)
C/C=C1/CC(C(=O)OC)N(C(=O)OCc2ccccc2)C1=S (stereo not given)	> 100 µM (inactive)	> 100 µM (inactive)	> 100 µM (inactive)	> 100 µM (inactive)	> 100 µM (inactive)		> 100 µM (inactive)	12.3 µM (inactive)	> 100 µM (inactive)	> 100 µM (inactive)	> 100 µM (inactive)	> 100 µM (inactive)	> 100 µM (inactive)	> 100 µM (inactive)	> 100 µM (inactive)	> 100 µM (inactive)	> 100 µM (inactive)	> 100 µM (inactive)	> 100 µM (inactive)
CCc1ccc2c(c1)/C(=C1/Nc3ccccc3C1=O)C(=O)N2	13.8 µM (inactive)	25.1 µM (inactive)	17.2 µM (inactive)	14.5 µM (inactive)	11 µM (inactive)	50.7 µM (inactive)	29.6 µM (inactive)	23.3 µM (inactive)	19.5 µM (inactive)	20.6 µM (inactive)	7.82 µM (inactive)	> 100 µM (inactive)	20.2 µM (inactive)	9.62 µM (inactive)	10.3 µM (inactive)	11 µM (inactive)	22.3 µM (inactive)	17 µM (inactive)	15.4 µM (inactive)
Nc1nc(N)c2ncn(-c3ccc(Cl)c(Cl)c3)c2n1	30.8 µM (inactive)	21.9 µM (inactive)	16.9 µM (inactive)	14.9 µM (inactive)	15 µM (inactive)		15.9 µM (inactive)		28.4 µM (inactive)	14.5 µM (inactive)	33.3 µM (inactive)	22.4 µM (inactive)	28.1 µM (inactive)	31.2 µM (inactive)	24.9 µM (inactive)	57 µM (inactive)	< 0.01 µM (active)	16.7 µM (inactive)	10.1 µM (inactive)
CN(C)CCCSc1nc2ccccc2[nH]1	> 100 µM (inactive)	> 100 µM (inactive)	> 100 µM (inactive)	> 100 µM (inactive)	> 100 µM (inactive)	> 100 µM (inactive)	> 100 µM (inactive)	> 100 µM (inactive)	> 100 µM (inactive)	> 100 µM (inactive)	> 100 µM (inactive)	> 100 µM (inactive)	> 100 µM (inactive)	> 100 µM (inactive)	> 100 µM (inactive)	> 100 µM (inactive)	> 100 µM (inactive)	> 100 µM (inactive)	> 100 µM (inactive)
CCOC(=O)c1nc2ccc(C(F)(F)F)cc2nc1NCc1ccc(OC)cc1	49.4 µM (inactive)	60.4 µM (inactive)	> 100 µM (inactive)	93.8 µM (inactive)	99.5 µM (inactive)	48.6 µM (inactive)	84.1 µM (inactive)	28 µM (inactive)	11.9 µM (inactive)	71.8 µM (inactive)	63.7 µM (inactive)	69.8 µM (inactive)	> 100 µM (inactive)	58.2 µM (inactive)	> 100 µM (inactive)	> 100 µM (inactive)	85.9 µM (inactive)	71.6 µM (inactive)	> 100 µM (inactive)
CCN(CC)CCNC(=O)c1cc2cc(NC(=O)c3cc4cc(N)ccc4[nH]3)ccc2[nH]1	41 µM (inactive)	28.1 µM (inactive)	86.5 µM (inactive)	12.9 µM (inactive)	35 µM (inactive)		50.6 µM (inactive)	34.6 µM (inactive)	19.1 µM (inactive)		8.05 µM (inactive)	19.3 µM (inactive)	> 100 µM (inactive)		31.3 µM (inactive)	49.3 µM (inactive)		> 100 µM (inactive)	23.4 µM (inactive)
CC(C)(C)c1cc(C2COC(c3cc(C(C)(C)C)c(O)c(C(C)(C)C)c3)CO2)cc(C(C)(C)C)c1O (stereo not given)	> 100 µM (inactive)	> 100 µM (inactive)	> 100 µM (inactive)	33.1 µM (inactive)	> 100 µM (inactive)	> 100 µM (inactive)	> 100 µM (inactive)		> 100 µM (inactive)	> 100 µM (inactive)	> 100 µM (inactive)	> 100 µM (inactive)	> 100 µM (inactive)	> 100 µM (inactive)	> 100 µM (inactive)	> 100 µM (inactive)	> 100 µM (inactive)	> 100 µM (inactive)	> 100 µM (inactive)
C=C[C@@]1(C)CC[C@@H]2[C@@]3(C1)O[C@H]3CC1[C@](C)(C(=O)OC)CCC[C@@]12C (stereo not given in full)	23.1 µM (inactive)	25.5 µM (inactive)	33.5 µM (inactive)	16.6 µM (inactive)	20 µM (inactive)		24.4 µM (inactive)	16.4 µM (inactive)	16.9 µM (inactive)	17 µM (inactive)	38.5 µM (inactive)	27 µM (inactive)	15 µM (inactive)	17.8 µM (inactive)	27.4 µM (inactive)	16.3 µM (inactive)	37.8 µM (inactive)	19.1 µM (inactive)	27 µM (inactive)
O=[N+]([O-])C(=C(N1CCOCC1)N1CCOCC1)/C(Cl)=C(\Cl)[N+](=O)[O-]	23.1 µM (inactive)	4.59 µM (inactive)	1.64 µM (inactive)	3.18 µM (inactive)	1.18 µM (inactive)	2.15 µM (inactive)	3.33 µM (inactive)	25.2 µM (inactive)	1.48 µM (inactive)	4.54 µM (inactive)	16 µM (inactive)	2.31 µM (inactive)	18 µM (inactive)	1.66 µM (inactive)	52.7 µM (inactive)	25.8 µM (inactive)	19.4 µM (inactive)	1.99 µM (inactive)	16.6 µM (inactive)
